Measured values published in US6559140B2 (Abbott Laboratories, priority 2000, dated 2003).

Target: H3 receptor (Rattus norvegicus, UniProt Q9QYN8)
Assay: H3 receptor binding, (3H)-N-α-methylhistamine displacement in rat cortical membranes
Conditions: male Sprague-Dawley rat brain cortical membranes, 30 minutes at 25° C., Cheng-Prusoff, geometric mean values of 2-10 separate experiments
Experimental: Briefly, male Sprague-Dawley rat brain cortices were homogenized (1 g tissue/10 mL buffer) in 50 mM Tris-HCl/5 mM EDTA containing protease inhibitor cocktail (Calbiochem) using a polytron set at 20,500 rpm. Homogenates were centrifuged for 20 minutes at 40,000×g. The supernatant was decanted, and pellets were weighed. The pellet was resuspended by polytron homogenization in 40 mL 50 mM Tris-HCl/5 mM EDTA with protease inhibitors and centrifuged for 20 minutes at 40,000×g. […] Test compounds were added to the incubation mixtures prior to initiating the incubation assay by addition of the membranes. Thioperamide (3 μM) was used to determine nonspecific binding. Binding incubations were conducted for 30 minutes at 25° C. and terminated by addition of 2 mL of ice cold 50 mM Tris-HCl (H 7.7) and filtration through 0.3% polyethylenimine-soaked Unifilter plates (Packard). These filters were washed 4 additional times with 2 mL of ice-cold 50 mM Tris-HCl and dried for 1 hour. Radioactivity was determined using liquid scintillation counting techniques. Results were analyzed by Hill transformation and Ki values were determined using the Cheng-Prusoff equation.

Sequence of H3 receptor (Q9QYN8 1-397 isoform Q9QYN8-3): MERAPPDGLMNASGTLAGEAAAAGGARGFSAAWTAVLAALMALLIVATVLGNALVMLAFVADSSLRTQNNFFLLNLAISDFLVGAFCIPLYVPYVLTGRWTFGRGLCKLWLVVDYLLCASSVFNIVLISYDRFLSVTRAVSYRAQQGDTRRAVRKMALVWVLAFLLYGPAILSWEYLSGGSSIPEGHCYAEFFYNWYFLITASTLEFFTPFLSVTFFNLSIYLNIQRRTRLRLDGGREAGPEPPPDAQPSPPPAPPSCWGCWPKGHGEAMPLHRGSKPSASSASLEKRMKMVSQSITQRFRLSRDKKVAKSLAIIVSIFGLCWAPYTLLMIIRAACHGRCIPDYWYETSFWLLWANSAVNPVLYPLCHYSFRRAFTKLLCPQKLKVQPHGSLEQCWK

Ki | SMILES
19.6 nM | C[C@H](N)C(=O)N1CCN(CCCOc2ccc(C(=O)C3CC3)cc2)CC1 [Example 1, (4-(3-(4-((2S)-2-aminopropanoyl)-1-piperazinyl)propoxy)phenyl)(cyclopropyl)methanone]
8.39 nM | CCCCCC(=O)c1ccc(OCCCN2CCN(C(=O)[C@H](N)CO)CC2)cc1 [Example 52, 1-(4-(3-(4-((2R)-2-amino-3-hydroxypropanoyl)-1-piperazinyl)propoxy)phenyl)-1-hexanone]
0.74 nM | C[C@H](CCOc1ccc(C(=O)C2CC2)cc1)N1CCN(C(=O)[C@@H](C)NC(=O)OC(C)(C)C)CC1 [Example 61, Tert-butyl (1R)-2-(4-((1R)-3-(4-(cyclopropylcarbonyl)phenoxy)-1-methylpropyl)-1-piperazinyl)-1-methyl-2-oxoethylcarbamate]
2.07 nM | C[C@@H](NC(=O)OC(C)(C)C)C(=O)N1CCN(CCCOc2ccc(C(=O)C3CC3)cc2)CC1 [Example 64, Tert-butyl (1R)-2-(4-(3-(4-(cyclopropylcarbonyl)phenoxy)propyl)-1-piperazinyl)-1-methyl-2-oxoethylcarbamate]
1.24 nM | CC[C@@H](N)C(=O)N1CCN(CCCOc2ccc(C(=O)C3CC3)cc2)CC1 [Example 69, (4-(3-(4-((2R)-2-aminobutanoyl)-1-piperazinyl)propoxy)phenyl)(cyclopropyl)methanone]
4.64 nM | O=C(c1ccc(OCCCN2CCN(C(=O)C[C@H]3CCCN3)CC2)cc1)C1CC1 [Example 86, Cyclopropyl(4-(3-(4-((2R)-pyrrolidinylacetyl)-1-piperazinyl)propoxy)phenyl)methanone]
1.07 nM | C[C@H](N)C(=O)N1CCCN(CCCOc2ccc(C(=O)C3CC3)cc2)CC1 [Example 117, (4-(3-(4-((2S)-2-aminopropanoyl)-1,4-diazepan-1-yl)propoxy)phenyl)(cyclopropyl)methanone]
0.425 nM | C[C@@H](NC(=O)[C@H]1CCCN1)C(=O)N1CCN(CCCOc2ccc(C(=O)C3CC3)cc2)CC1 [Example 129, (2R)-N-((1R)-2-(4-(3-(4-(cyclopropylcarbonyl)phenoxy)propyl)-1-piperazinyl)-1-methyl-2-oxoethyl)-2-pyrrolidinecarboxamide]
0.208 nM | N#Cc1ccc(-c2ccc(OCCCN3CCCN(C(=O)[C@@H](Cc4cscn4)NC(=O)c4ccco4)CC3)cc2)cc1 [Example 137, N-((1R)-2-(4-(3-((4′-cyano(1,1′-biphenyl)-4-yl)oxy)propyl)-1,4-diazepan-1-yl)-2-oxo-1-(1,3-thiazol-4-ylmethyl)ethyl)-2-furamide]
7.29 nM | CC(C)N[C@H](C)C(=O)N1CCN(CCCOc2ccc(C(=O)C3CC3)cc2)CC1 [Example 139, Cyclopropyl(4-(3-(4-((2R)-2-(isopropylamino)propanoyl)-1-piperazinyl)propoxy)phenyl)methanone]
0.72 nM | CC(C)CCc1nc(-c2ccc(OCCCN3CCCN(C(=O)[C@@H](C)NC(=O)c4ccco4)CC3)cc2F)no1 [Example 142, N-[(1R)-2-(4-{3-[3-fluoro-4-(5-isopentyl-1,2,4-oxadiazol-3-yl)phenoxy]propyl}-1,4-diazepan-1-yl)-1-methyl-2-oxoethyl]-2-furamide]
4 nM | CC(C)OCc1nc(-c2ccc(OCCCN3CCCN(C(=O)[C@@H](C)NC(=O)c4ccco4)CC3)cc2F)no1 [Example 143, N-{(1R)-2-[4-(3-{3-fluoro-4-[5-(isopropoxymethyl)-1,2,4-oxadiazol-3-yl]phenoxy}propyl)-1,4-diazepan-1-yl]-1-methyl-2-oxoethyl}-2-furamide]
1.36 nM | C[C@@H](NC(=O)c1ccco1)C(=O)N1CCCN(CCCOc2ccc(-c3noc(C4CCCC4)n3)c(F)c2)CC1 [Example 144, N-[(1R)-2-(4-{3-[4-(5-cyclopentyl-1,2,4-oxadiazol-3-yl)-3-fluorophenoxy]propyl}-1,4-diazepan-1-yl)-1-methyl-2-oxoethyl]-2-furamide]
1.68 nM | C[C@@H](NC(=O)c1ccco1)C(=O)N1CCCN(CCCOc2ccc(-c3noc(-c4ccoc4)n3)c(F)c2)CC1 [Example 147, N-{(1R)-2-[4-(3-{3-fluoro-4-[5-(3-furyl)-1,2,4-oxadiazol-3-yl]phenoxy}propyl)-1,4-diazepan-1-yl]-1-methyl-2-oxoethyl}-2-furamide]

The remaining lines, values behind:

SMILES | Ki
C[C@H](CCOc1ccc(C(=O)C2CC2)cc1)N1CCN(C(=O)[C@@H](C)N)CC1 [Example 62, (4-(((3R)-3-(4-((2R)-2-aminopropanoyl)-1-piperazinyl)butyl)oxy)phenyl)(cyclopropyl)methanone] | 1.46 nM
CC(C)(C)[C@@H](N)C(=O)N1CCN(CCCOc2ccc(C(=O)C3CC3)cc2)CC1 [Example 66, (4-(3-(4-((2R)-2-amino-3,3-dimethylbutanoyl)-1-piperazinyl)propoxy)phenyl)(cyclopropyl)methanone] | 12.1 nM
N[C@H](COCc1ccccc1)C(=O)N1CCN(CCCOc2ccc(C(=O)C3CC3)cc2)CC1 [Example 75, (4-(3-(4-((2R)-2-amino-3-(benzyloxy)propanoyl)-1-piperazinyl)propoxy)phenyl)(cyclopropyl)methanone] | 4.67 nM
Cn1cnc(C[C@@H](N)C(=O)N2CCN(CCCOc3ccc(C(=O)C4CC4)cc3)CC2)c1 [Example 88, (4-(3-(4-((2R)-2-amino-3-(1-methyl-1H-imidazol-4-yl)propanoyl)-1-piperazinyl)propoxy)phenyl)(cyclopropyl)methanone] | 6.56 nM
C[C@@H](N)C(=O)N1CCN(CCCOc2ccc(-c3ccc(C#N)cc3)cc2)CC1 [Example 100] | 12.4 nM
O=C(c1ccc(OCCCN2CCCN(C(=O)C[C@@H]3CCCN3)CC2)cc1)C1CC1 [Example 124, Cyclopropyl(4-(3-(4-((2S)-pyrrolidinylacetyl)-1,4-diazepan-1-yl)propoxy)phenyl)methanone] | 4.03 nM
C[C@@H](NC(=O)c1ccco1)C(=O)N1CCN(CCCOc2ccc(C(=O)C3CC3)cc2)CC1 [Example 126, N-((1R)-2-(4-(3-(4-(cyclopropylcarbonyl)phenoxy)propyl)-1-piperazinyl)-1-methyl-2-oxoethyl)-2-furamide] | 0.742 nM
C[C@@H](N)C(=O)N1CCN(CCCOc2ccc(C(=O)C3CC3)cc2)CC1 [Example 138, (4-(3-(4-((2R)-2-aminopropanoyl)-1-piperazinyl)propoxy)phenyl)(cyclopropyl)methanone] | 0.996 nM
N#Cc1ccc(-c2ccc(OCCN3CCN(C(=O)[C@@H]4CCCN4)CC3)cc2)cc1 [Example 140, 4′-(2-(4-((2S)-pyrrolidinylcarbonyl)-1-piperazinyl)ethoxy)(1,1′-biphenyl)-4-carbonitrile] | 818 nM
CCCc1nc(-c2ccc(OCCCN3CCCN(C(=O)[C@@H](C)NC(=O)c4ccco4)CC3)cc2F)no1 [Example 141, N-[(1R)-2-(4-{3-[3-fluoro-4-(5-propyl-1,2,4-oxadiazol-3-yl)phenoxy]propyl}-1,4-diazepan-1-yl)-1-methyl-2-oxoethyl]-2-furamide] | 2.34 nM
C[C@H](NC(=O)OC(C)(C)C)c1nc(-c2ccc(OCCCN3CCCN(C(=O)[C@@H](C)NC(=O)c4ccco4)CC3)cc2F)no1 [Example 146, Tert-butyl (1S)-1-{3-[2-fluoro-4-(3-{4-[(2R)-2-(2-furoylamino)propanoyl]-1,4-diazepan-1-yl}propoxy)phenyl]-1,2,4-oxadiazol-5-yl}ethylcarbamate] | 9.03 nM
